# Reference: ChEMBL document CHEMBL1201862, “PubChem BioAssay data set” (2004)
# Active and inactive are the calls of the source.
# Columns and labels:
# [1] = biological target: T1, Neuropeptides B/W receptor type 1 (Homo sapiens, UniProt P48145); assay: Fluorescence-based dose response cell-based high throughput screening assay to identify antagonists of the G-protein coupled receptor 7 (GPR7). [Related pubchem assays: 1952 (Screening assay (GPR7 antagonists).), 1880 (Summary AID.)]; assay type: functional
# T1 sequence (P48145 whole entry): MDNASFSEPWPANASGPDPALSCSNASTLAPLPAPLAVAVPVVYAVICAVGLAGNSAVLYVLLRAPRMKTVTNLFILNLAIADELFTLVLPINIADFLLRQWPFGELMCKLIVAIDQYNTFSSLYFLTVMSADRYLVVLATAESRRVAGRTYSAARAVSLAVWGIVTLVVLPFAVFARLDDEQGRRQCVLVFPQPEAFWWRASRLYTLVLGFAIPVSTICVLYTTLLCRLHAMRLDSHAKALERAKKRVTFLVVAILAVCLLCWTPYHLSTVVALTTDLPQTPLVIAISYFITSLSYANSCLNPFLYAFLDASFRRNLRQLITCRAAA
# [2] = biological target: Melanin-concentrating hormone receptor 1 (Homo sapiens, UniProt Q99705); assay: Fluorescence-based counterscreen for antagonists of the G-protein coupled receptor 7 (GPR7): cell-based high throughput dose response assay to identify antagonists of the melanin-concentrating hormone receptor 1 (MCHR1).; assay type: functional
# Sequence of Melanin-concentrating hormone receptor 1 (Q99705 whole entry): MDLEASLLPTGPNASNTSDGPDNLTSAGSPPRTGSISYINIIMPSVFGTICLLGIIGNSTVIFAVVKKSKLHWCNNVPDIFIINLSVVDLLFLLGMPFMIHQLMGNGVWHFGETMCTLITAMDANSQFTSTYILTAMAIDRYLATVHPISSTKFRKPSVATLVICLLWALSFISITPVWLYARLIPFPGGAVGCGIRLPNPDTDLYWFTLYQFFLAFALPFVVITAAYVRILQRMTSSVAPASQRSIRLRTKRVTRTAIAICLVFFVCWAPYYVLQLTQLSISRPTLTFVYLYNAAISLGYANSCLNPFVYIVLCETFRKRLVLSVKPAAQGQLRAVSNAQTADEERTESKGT
# [3] = biological target: T2, Eukaryotic translation initiation factor 2-alpha kinase 3 (Homo sapiens, UniProt Q9NZJ5); assay: Dose response cell-based high-throughput screening assay to measure PERK inhibition. [Related pubchem assays: 1416 ]; assay type: functional
# T2 sequence (Q9NZJ5 whole entry): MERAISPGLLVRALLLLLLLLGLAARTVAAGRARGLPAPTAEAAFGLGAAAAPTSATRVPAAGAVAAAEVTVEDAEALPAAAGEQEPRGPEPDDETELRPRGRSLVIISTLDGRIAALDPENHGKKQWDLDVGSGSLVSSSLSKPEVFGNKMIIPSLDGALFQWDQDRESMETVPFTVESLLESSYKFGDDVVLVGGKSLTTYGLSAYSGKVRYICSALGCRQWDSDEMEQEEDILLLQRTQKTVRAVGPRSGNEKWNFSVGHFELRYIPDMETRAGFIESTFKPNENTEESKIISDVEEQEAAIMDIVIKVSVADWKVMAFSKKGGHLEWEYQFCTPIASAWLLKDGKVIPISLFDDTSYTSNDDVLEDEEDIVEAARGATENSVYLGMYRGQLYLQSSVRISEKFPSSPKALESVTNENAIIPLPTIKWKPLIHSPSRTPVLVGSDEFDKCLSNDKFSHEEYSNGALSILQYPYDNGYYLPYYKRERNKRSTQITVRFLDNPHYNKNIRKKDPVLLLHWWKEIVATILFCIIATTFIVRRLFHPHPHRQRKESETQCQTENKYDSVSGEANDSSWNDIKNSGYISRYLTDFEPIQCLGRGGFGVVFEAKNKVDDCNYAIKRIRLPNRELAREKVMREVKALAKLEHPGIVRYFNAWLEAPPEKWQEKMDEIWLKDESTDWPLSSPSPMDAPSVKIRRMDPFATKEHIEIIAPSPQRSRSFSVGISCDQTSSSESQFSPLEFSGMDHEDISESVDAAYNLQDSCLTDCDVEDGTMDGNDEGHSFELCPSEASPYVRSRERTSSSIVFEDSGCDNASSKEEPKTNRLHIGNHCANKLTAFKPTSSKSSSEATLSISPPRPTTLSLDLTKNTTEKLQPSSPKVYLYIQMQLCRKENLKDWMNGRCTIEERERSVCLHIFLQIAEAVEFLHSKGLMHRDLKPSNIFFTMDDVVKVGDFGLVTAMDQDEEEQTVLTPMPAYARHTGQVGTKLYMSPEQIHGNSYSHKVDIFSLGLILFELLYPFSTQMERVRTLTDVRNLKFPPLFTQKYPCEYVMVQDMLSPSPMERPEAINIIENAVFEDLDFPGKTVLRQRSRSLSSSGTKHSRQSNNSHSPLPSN
# [4] = biological target: T2, Eukaryotic translation initiation factor 2-alpha kinase 3; assay: Counterscreen assay for PERK inhibitors: Dose response cell-based high throughput screening assay to measure inhibition of PERK at 6 hours. [Related pubchem assays: 1522, 1416 ]; assay type: functional
# [5] = tested on: Streptococcus sp. 'group A'; assay: growth inhibition of control SK(-) GAS strain, dose response, counter-screen for streptokinase expression inhibitor project, luminescence, kanamycin, BacTiterGlo, confirmation (AID 1900); assay type: functional, organism-based
# [6] = biological target: T3, Streptokinase A (Streptococcus pyogenes serotype M1, UniProt P10520); assay: S. pyogenes streptokinase expression inhibitors, potency, dose response, plasminogen activation absorbance, OD405 (AID 1914); assay type: functional, Streptococcus pyogenes M1 GAS;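 also: secreted streptokinase activity via plasminogen activation per viability signal from cell pellet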
# T3 sequence (P10520 whole entry): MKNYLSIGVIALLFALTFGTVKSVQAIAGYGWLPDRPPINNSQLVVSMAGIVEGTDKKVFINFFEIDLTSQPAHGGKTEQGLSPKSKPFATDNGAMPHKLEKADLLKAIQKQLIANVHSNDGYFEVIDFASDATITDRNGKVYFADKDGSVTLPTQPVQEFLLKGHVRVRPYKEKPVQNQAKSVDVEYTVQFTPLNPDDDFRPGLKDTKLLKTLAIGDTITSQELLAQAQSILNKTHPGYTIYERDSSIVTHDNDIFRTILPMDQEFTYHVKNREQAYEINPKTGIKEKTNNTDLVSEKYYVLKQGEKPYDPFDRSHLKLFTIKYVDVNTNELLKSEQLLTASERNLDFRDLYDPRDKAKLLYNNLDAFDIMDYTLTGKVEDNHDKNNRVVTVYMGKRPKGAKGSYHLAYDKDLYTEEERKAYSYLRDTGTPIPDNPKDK
# [7] = tested on: Streptococcus; assay: Group A Streptococcus viability loss, dose response, counter-screen for streptokinase expression inhibitor project, luminescence, BacTiterGlo (AID 1915); assay type: functional, organism-based;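 also: potency for reduction of bacterial viability or growth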
# [8] = Luminescence Cell-Based Dose Retest to Confirm Inhibitors of Cancer Stem Cells. [Related pubchem assays (depositor defined):AID2717, AID2721]; assay type: functional; details: Homo sapiens
# [9] = biological target: Neurotensin receptor type 1 (Homo sapiens, UniProt P30989); assay type: functional;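 also: Image-based confirmatory dose-response assay measuring agonist activity at NTR1; NTR1-expressing U2OS osteosarcoma cells imaged for beta-arrestin GFP spot formation; agonist potency where compounds increase beta-arrestin recruitment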
# Sequence of Neurotensin receptor type 1 (P30989 whole entry): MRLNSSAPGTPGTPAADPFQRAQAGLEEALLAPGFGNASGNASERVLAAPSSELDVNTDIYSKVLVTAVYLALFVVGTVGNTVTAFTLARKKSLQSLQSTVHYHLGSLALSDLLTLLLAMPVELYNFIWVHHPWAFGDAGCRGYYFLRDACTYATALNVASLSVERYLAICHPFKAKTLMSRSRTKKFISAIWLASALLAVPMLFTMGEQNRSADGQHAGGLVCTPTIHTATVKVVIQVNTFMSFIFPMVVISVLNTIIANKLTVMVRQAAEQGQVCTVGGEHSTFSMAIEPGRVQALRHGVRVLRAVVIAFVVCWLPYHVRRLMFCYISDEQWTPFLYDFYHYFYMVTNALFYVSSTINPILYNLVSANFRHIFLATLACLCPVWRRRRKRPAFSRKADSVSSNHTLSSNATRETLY
# [10] = biological target: Troponin, cardiac muscle (Homo sapiens, UniProt P19429+P45379+P63316); assay: Fluorescence-based biochemical high throughput dose response assay for activators of the calcium sensitivity of cardiac Regulated Thin Filaments (RTF). [Related pubchem assays (depositor defined):AID493008, AID493018, AID504382, AID504383]; assay type: protein-complex assay
# [11] = biological target: Hexokinase (Trypanosoma brucei, UniProt Q38C41); assay: Confirmation assay for inhibitors of Trypanosoma brucei hexokinase 1-Analogue-first series. [Related pubchem assays (depositor defined):AID1430, AID1632, AID2516, AID2560, AID2579, AID2600, AID449725, AID492951]; assay type: functional
# Sequence of Hexokinase (Q38C41 whole entry): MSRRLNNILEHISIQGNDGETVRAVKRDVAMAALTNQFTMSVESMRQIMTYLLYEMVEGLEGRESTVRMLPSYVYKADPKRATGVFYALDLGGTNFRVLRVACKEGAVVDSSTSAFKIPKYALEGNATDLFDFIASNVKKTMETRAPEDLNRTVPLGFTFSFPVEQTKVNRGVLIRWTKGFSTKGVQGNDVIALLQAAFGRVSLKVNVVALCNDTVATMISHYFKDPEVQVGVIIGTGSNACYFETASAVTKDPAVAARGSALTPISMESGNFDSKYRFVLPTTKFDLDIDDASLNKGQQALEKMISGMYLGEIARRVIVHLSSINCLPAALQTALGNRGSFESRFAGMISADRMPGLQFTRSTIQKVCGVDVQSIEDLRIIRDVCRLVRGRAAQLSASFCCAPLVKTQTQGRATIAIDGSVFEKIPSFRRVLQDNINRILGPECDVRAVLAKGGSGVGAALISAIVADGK
# [12] = biological target: T4, Voltage-gated N-type calcium channel alpha-1B subunit/Amyloid beta A4 precursor protein-binding family A member 1 (Homo sapiens, UniProt Q00975+Q02410); assay type: protein assay
# T4 sequence (Q00975 whole entry): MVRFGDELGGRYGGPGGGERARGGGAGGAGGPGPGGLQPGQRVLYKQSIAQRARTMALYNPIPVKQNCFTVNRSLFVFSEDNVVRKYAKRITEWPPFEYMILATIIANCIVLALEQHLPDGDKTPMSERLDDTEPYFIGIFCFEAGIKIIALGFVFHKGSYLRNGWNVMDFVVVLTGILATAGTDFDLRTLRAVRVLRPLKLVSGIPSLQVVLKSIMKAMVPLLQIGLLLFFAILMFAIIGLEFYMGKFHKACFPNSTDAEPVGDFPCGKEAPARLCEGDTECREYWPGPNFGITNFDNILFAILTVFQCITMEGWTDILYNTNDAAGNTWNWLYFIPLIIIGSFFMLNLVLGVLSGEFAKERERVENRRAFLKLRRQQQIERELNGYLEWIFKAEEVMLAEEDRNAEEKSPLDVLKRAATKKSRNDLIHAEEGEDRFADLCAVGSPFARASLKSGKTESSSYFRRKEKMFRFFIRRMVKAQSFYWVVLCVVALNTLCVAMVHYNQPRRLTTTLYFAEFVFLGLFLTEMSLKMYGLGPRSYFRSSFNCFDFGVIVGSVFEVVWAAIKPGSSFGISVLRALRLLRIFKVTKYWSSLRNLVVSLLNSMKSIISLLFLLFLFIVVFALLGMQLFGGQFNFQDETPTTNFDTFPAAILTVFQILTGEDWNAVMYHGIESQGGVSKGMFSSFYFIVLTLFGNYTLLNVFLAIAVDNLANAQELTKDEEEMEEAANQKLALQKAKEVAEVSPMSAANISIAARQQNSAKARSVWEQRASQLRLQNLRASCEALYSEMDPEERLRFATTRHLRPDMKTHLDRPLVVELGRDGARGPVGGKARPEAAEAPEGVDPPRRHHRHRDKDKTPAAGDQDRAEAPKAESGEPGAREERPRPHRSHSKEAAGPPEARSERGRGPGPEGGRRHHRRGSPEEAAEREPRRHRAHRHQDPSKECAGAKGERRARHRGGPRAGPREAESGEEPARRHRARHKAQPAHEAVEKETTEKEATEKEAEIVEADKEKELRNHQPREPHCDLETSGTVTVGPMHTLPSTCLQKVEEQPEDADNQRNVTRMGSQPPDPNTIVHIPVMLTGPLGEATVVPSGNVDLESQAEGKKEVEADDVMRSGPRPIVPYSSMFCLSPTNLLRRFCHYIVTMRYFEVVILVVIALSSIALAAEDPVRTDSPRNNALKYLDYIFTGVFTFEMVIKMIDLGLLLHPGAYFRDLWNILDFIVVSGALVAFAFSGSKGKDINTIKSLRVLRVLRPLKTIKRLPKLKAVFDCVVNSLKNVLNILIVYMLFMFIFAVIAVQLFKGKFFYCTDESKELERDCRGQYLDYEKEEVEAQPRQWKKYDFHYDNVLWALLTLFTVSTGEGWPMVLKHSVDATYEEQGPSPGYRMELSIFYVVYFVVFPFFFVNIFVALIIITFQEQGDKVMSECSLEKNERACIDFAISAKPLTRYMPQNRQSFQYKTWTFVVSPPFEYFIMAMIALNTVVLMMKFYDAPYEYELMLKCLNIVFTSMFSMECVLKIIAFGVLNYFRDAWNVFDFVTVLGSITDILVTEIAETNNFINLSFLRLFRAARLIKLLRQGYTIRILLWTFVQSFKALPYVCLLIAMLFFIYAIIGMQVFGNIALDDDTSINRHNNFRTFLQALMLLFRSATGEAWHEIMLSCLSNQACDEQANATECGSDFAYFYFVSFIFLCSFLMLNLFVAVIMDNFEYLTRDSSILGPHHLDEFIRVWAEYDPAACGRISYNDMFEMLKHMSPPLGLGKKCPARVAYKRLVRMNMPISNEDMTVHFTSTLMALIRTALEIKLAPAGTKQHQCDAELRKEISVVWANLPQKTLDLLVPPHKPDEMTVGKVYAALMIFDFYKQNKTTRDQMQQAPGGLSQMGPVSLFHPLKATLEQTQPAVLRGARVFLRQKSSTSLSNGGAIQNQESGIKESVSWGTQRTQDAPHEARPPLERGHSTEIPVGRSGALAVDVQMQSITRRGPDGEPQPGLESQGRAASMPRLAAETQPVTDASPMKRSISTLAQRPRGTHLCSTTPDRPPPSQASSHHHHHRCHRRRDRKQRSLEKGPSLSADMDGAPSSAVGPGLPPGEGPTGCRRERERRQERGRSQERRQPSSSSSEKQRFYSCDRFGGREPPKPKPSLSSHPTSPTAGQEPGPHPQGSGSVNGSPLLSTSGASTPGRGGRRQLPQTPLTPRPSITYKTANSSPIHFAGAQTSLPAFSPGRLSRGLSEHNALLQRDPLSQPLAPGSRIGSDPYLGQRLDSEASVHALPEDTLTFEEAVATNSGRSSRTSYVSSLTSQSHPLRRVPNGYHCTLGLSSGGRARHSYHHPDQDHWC
# T4 sequence (Q02410 whole entry): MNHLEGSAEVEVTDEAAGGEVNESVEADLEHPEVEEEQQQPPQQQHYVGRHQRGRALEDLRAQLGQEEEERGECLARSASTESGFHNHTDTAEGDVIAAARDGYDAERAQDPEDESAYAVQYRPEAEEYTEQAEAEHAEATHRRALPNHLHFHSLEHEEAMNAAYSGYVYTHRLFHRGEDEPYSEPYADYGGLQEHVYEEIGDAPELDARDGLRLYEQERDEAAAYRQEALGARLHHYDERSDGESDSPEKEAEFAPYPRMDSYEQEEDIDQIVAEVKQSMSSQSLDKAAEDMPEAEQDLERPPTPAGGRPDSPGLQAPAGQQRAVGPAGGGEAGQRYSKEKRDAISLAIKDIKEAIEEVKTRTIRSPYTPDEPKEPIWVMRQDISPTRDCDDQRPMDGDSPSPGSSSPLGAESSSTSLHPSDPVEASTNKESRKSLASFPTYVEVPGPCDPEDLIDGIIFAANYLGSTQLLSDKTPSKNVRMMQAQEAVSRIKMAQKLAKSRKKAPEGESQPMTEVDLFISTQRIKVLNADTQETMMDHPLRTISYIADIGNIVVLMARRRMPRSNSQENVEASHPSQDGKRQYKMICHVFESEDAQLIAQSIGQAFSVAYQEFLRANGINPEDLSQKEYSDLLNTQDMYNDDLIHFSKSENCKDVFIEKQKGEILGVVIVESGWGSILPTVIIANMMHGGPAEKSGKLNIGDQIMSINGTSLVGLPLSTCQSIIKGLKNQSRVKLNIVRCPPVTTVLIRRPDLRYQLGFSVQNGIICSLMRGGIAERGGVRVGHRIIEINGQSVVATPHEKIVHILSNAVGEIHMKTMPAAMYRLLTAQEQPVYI
# [13] = biological target: T4, Voltage-gated N-type calcium channel alpha-1B subunit/Amyloid beta A4 precursor protein-binding family A member 1; assay type: protein assay; remark: listed apart in the source
# [14] = cells
# [15] = tested on: HeLa; assay: HeLa cell cytotoxicity, dose response, cytotoxicity control, 24 h, cherry-picked samples (AID 504726); assay type: functional, cell-based; details: Homo sapiens;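 also: potency for cytotoxicity as loss of luminescence signal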
# [16] = cytotoxicity in HPDE-C7 cells, cell-based, fluorescence, HTS (AID 430); assay type: functional; details: Homo sapiens
# [17] = cytotoxicity in KRAS-transformed pancreatic duct cells, primary screen, cell-based, fluorescence, HTS (AID 431); assay type: functional; details: Homo sapiens;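 also: cell line used: HPDE-C7K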
# [18] = cytotoxicity in HEK-293T cells, dose response, cytotoxicity control for TCR NF-kB inhibitor project, luminescence, T-cell screen hits (AID 489026); assay type: functional, cell-based;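 also: cells exposed to compound about 14 hours before the viability readout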
# [19] = CEM21 lymphoblast cell cytotoxicity, dose response, cytotoxicity control for viral fusion inhibitor project, CellTiter-Glo luminescence, cherry-picked (AID 652042); assay type: functional, cell-based;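 also: potency for signal decrease meaning cytotoxicity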
# [20] = off-target signal loss in HeLa-CEM21 co-culture – HeLa F-luc CTL cells, cherry-picked, counter-screen for HIV-1 Env fusion inhibitor project, dose response (AID 652040); assay type: functional, cell-based;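 also: potency for signal decrease marking cytotoxic or nonspecific inhibition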
# [21] = HepG2 cell cytotoxicity, dose response, cytotoxicity control, plate reader, cherry-pick, antagonist series (AID 743416); assay type: functional, cell-based
# [22] = LGR2 antagonists, dose response, cell-based, HEK293, CRE-luciferase reporter, cherry pick, set 2 (AID 743343); assay type: functional;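 also: transfected cells were stimulated with diluted bursicon conditioned medium after compound addition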
# [23] = MC4R antagonists, dose response, counter-screen for LGR2 antagonist project, cell-based, plate reader, cherry pick (AID 743444); assay type: functional;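 also: transfected HEK 293 cells stimulated with alpha-MSH peptide; potency of inhibitors of the alpha-MSH evoked signal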
# [24] = HEK293 cell cytotoxicity, dose response, cytotoxicity control, plate reader, cherry-picked samples (AID 743446); assay type: functional, cell-based
# [25] = biological target: T5, Heat shock factor protein 1 (Mus musculus, UniProt P38532); assay: HSF1 potentiators in luciferase reporter cells, confirmation, cell-based, NIH3T3, luminescence, dose retest (AID 435004); assay type: functional;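 also: stress induced by proteasome inhibitor MG132 added 30 min after compound; luciferase reporter driven by HSF1 response element in NIH3T3 cells; actives raise luminescence as potentiators of the MG132 stress response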
# T5 sequence (P38532 whole entry): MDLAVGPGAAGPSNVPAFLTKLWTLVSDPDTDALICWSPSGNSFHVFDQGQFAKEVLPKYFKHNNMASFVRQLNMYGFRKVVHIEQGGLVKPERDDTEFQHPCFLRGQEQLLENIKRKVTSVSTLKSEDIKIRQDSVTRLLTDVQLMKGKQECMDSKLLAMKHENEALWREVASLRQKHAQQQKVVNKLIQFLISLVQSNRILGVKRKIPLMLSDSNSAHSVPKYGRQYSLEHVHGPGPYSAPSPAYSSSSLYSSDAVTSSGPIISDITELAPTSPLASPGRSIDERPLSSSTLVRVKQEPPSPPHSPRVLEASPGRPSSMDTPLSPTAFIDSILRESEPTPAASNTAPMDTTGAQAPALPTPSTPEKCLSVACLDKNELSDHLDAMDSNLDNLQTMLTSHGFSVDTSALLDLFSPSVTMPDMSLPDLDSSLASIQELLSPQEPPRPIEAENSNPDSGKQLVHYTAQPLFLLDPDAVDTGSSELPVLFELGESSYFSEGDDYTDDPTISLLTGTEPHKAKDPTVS
# [26] = biological target: DNA dC->dU-editing enzyme APOBEC-3A (Homo sapiens, UniProt P31941); assay: Dose Response confirmation of small molecule APOBEC3A DNA Deaminase Inhibitors via a fluorescence-based single-stranded DNA deaminase assay. [Related pubchem assays (depositor defined):AID493011, AID493024]; assay type: functional
# Sequence of DNA dC->dU-editing enzyme APOBEC-3A (P31941 whole entry): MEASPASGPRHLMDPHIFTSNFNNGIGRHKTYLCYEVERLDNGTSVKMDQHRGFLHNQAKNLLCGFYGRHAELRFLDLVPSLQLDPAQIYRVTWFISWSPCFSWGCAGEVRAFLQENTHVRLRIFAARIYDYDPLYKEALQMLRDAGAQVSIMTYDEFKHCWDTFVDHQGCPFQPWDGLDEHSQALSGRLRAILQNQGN
# [27] = biological target: DNA dC->dU-editing enzyme APOBEC-3G (Homo sapiens, UniProt Q9HC16); assay type: functional;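 also: Dose-response counterscreen measuring inhibition of APOBEC3G DNA deaminase activity, run while confirming APOBEC3A inhibitors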
# Sequence of DNA dC->dU-editing enzyme APOBEC-3G (Q9HC16 whole entry): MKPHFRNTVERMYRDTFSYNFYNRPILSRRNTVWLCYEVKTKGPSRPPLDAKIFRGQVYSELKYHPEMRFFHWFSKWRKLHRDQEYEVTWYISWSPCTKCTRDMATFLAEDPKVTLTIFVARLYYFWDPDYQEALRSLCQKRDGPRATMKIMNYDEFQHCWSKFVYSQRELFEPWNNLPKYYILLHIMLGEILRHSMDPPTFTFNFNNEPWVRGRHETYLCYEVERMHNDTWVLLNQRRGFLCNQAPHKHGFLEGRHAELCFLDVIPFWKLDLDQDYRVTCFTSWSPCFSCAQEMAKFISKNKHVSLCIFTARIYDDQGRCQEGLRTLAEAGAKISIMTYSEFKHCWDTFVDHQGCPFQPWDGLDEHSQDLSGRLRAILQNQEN
smiles,measurement,setting,value
N#Cc1ccc(CSc2nnc(Cc3cccs3)n2Cc2ccco2)cc1,IC50,[1],> 43.8 µM (not active)
same,IC50,[2],23 µM (not active)
COC(=O)Cc1ccc(NC(S)=NNC(=O)C2CC2)cc1,EC50,[3],> 55.7 µM (not active)
same,EC50,[4],> 55.7 µM (not active)
O=c1/c(=C\c2cccc(O)c2)sc2nc(-c3ccccc3)c(-c3ccccc3)n12,EC50,[5],3.01 µM (active)
same,EC50,[6],4.22 µM (active)
same,EC50,[7],51.1 µM (active)
same,AC50,[8],2.59 µM (active)
same,EC50,[9],27.2 µM (inactive)
CC(C)Sc1nc2cc(Br)ccc2[nH]1,EC50,[10],> 71.4 µM (inactive)
CC(=O)Nc1cc(Cl)ccc1C(=O)O,IC50,[11],> 25 µM (inactive)
NS(=O)(=O)c1ccc2nc(NC(=O)Nc3ccc(F)cc3)sc2c1,IC50,[1],> 43.8 µM (not active)
same,IC50,[2],> 43.8 µM (not active)
O=C(O)c1ccc(Cl)cc1NC(=O)c1coc2ccccc12,IC50,[11],> 25 µM (inactive)
C=C(C)C(=O)Nc1cccc(C2=NOC3(C2)C[C@@H](C(N)=O)N(C(=O)c2ccc(OC)cc2)C3)c1 (some centres undefined),IC50,[12],> 56.8 µM (not active)
same,IC50,[13],> 50 µM (inactive)
same,IC50,[14],38.9 µM (active)
CCc1ccc(-n2c(SCC(=O)N3Cc4ccccc4CC3C(=O)O)nnc2-c2ccncc2)cc1 (centres undefined),EC50,[3],> 55.7 µM (not active)
same,EC50,[4],> 55.7 µM (not active)
CSc1ncccc1C(=O)OCCCC(=O)c1ccc(F)cc1,AC50,[15],91.9 µM (active)
Cc1ccc(-n2ncc3c(N4CCN(c5ccccc5)CC4)ncnc32)c(C)c1,EC50,[16],13.8 µM (active)
same,EC50,[17],8.48 µM (active)
same,EC50,[9],9.82 µM (active)
same,IC50,[18],29.6 µM (inactive)
same,AC50,[19],17.7 µM (active)
same,AC50,[20],32.4 µM (active)
same,AC50,[21],34.7 µM (active)
same,AC50,[22],13.8 µM (active)
same,AC50,[23],16.5 µM (active)
same,AC50,[24],14.4 µM (active)
Cn1c(=O)c2c(nc(N/N=C/c3ccc(OC(=O)c4ccco4)cc3)n2Cc2ccc(F)cc2)n(C)c1=O,AC50,[15],43.7 µM (active)
same,EC50,[25],3.74 µM (active)
Cn1c(CNC(=O)c2ccco2)nnc1SCC(=O)N1c2ccccc2Sc2ccccc21,IC50,[26],4 µM (active)
same,IC50,[27],5.8 µM (active)
